Columns and labels:
Histamine H4 receptor [1] = molecular target: T1, Histamine H4 receptor (Homo sapiens, UniProt Q9H3N8); test: Displacement of [3H]histamine from human recombinant histamine H4 receptor expressed in SK-N-MC cells after 45 mins by competition binding analysis; format: cell-based
Histamine H4 receptor [2] = molecular target: T1, Histamine H4 receptor; test: Agonist activity at human H4 receptor; conditions: read-out: EC50
Histamine H4 receptor [3] = molecular target: T1, Histamine H4 receptor; test: Antagonist activity at human histamine H4 receptor expressed in SK-N-MC cells assessed as reduction of histamine-induced inhibition of cAMP-mediated beta-galactosidase reporter gene activity treated 10 mins prior to histamine challenge by microplate reader analysis; format: functional, cell-based; conditions: read-out: pA2 (converted)

T1 sequence (Q9H3N8 whole entry): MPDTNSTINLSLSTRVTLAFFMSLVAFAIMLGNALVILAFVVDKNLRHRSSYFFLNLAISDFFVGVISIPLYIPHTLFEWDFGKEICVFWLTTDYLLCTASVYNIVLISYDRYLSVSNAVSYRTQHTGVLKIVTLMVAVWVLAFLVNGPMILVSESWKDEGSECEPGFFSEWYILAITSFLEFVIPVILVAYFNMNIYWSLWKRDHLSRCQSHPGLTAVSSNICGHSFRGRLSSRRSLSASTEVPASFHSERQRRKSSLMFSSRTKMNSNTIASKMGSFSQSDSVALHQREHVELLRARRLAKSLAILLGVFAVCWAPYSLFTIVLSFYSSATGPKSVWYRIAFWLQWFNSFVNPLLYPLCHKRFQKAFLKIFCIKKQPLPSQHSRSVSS

Work on `CN[C@@H]1CCN(c2cc(Cl)nc(N)n2)C1` yielded a Ki (Histamine H4 receptor [1]) greater than 10000 nM.

`CN[C@@H]1CCN(c2cc(C(C)C)nc(N)n2)C1` was tested, and the EC50 (Histamine H4 receptor [2]) was greater than 10000 nM and the Kb (Histamine H4 receptor [3]) was 12.6 nM.

With `CN[C@H]1CN(c2cc(C3CCCC3)nc(N)n2)C[C@@H]1O` (relative stereo) the EC50 (Histamine H4 receptor [2]) was greater than 10000 nM, the Ki (Histamine H4 receptor [1]) was 30 nM and the Kb (Histamine H4 receptor [3]) was 10 nM.

Work on `CN1CCN(C(=O)c2cc3c([nH]2)CCCC3)CC1` yielded a Ki (Histamine H4 receptor [1]) of 20 nM.

`CN1CCN(c2ncnc3c2oc2ccc(Cl)cc23)CC1` showed a Ki (Histamine H4 receptor [1]) of 5 nM.

In the case of `CCc1cc(N2CC[C@@H](N)C2)nc(N)n1`, the EC50 (Histamine H4 receptor [2]) is reported as greater than 10000 nM and the Kb (Histamine H4 receptor [3]) is reported as 12.6 nM.

In the case of `CN1CCN(C(=O)c2nc3c([nH]2)CCCC3)CC1`, the Ki (Histamine H4 receptor [1]) is reported as 39 nM.

With `CC(C)(C)c1cc(N2CC[C@@H](N)C2)nc(N)n1` the EC50 (Histamine H4 receptor [2]) was greater than 10000 nM, the Ki (Histamine H4 receptor [1]) was 9.4 nM and the Kb (Histamine H4 receptor [3]) was 5.01 nM.

From ChEMBL document CHEMBL3232922, “Discovery and SAR of 6-alkyl-2,4-diaminopyrimidines as histamine H₄ receptor antagonists” (J Med Chem, 2014)
